Data: ChEMBL document CHEMBL1147945, “R-isomers of Arg-Gly-Asp (RGD) mimics as potent alphavbeta3 inhibitors” (Bioorg Med Chem, 2007)
Active and inactive are the calls of the source. The rule behind the calls is not given here.

Assays:
Integrin alpha-V/beta-3 = Integrin alpha-V/beta-3 (Homo sapiens, UniProt P05106+P06756); experiment: Inhibition of alphaVbeta3 integrin receptor expressed in human 293 cells; assay type: cell-based, HEK293
Integrin alpha-V/beta-6 = Integrin alpha-V/beta-6 (Homo sapiens, UniProt P06756+P18564); experiment: Inhibition of alpha-V-beta-6 integrin receptor in human HT29 cells; assay type: cell-based, HT-29
[1] = Bioavailability in mouse at 20 mg/kg, po; assay type: ADME, organism-based; conditions: in vivo
[2] = Half life in mouse at 20 mg/kg po or 10 mg/kg iv; assay type: ADME, organism-based; conditions: in vivo
M21 [3] = experiment: Inhibition of tumor growth in twice daily ip dosed SCID mouse implanted with human M21 cells after 28 days; assay type: functional, organism-based
M21 [4] = experiment: Decrease in tumor volume in SCID mouse implanted with human M21 cells at 100 mg/kg, ip twice daily after 28 days relative to control; assay type: functional; set-up: scale not given: the % may be the effect or the level left; conditions: route intraperitoneal
M21 [5] = experiment: Decrease in tumor weight in SCID mouse implanted with human M21 cells at 100 mg/kg, ip twice daily after 28 days relative to control; assay type: functional; set-up: scale not given: the % may be the effect or the level left; conditions: route intraperitoneal
Colon 26 [6] = experiment: Inhibition of tumor growth in twice daily ip dosed BALB/c mouse implanted with mouse colon 26 tumor cells after 21 days; assay type: functional, organism-based
Colon 26 [7] = experiment: Decrease in tumor volume in BALB/c mouse implanted with mouse colon 26 tumor cells at 100 mg/kg, ip twice daily after 21 days relative to control; assay type: functional; set-up: scale not given: the % may be the effect or the level left; conditions: route intraperitoneal
Colon 26 [8] = experiment: Decrease in tumor weight in BALB/c mouse implanted with colon 26 tumor cells at 100 mg/kg, ip twice daily after 21 days relative to control; assay type: functional; set-up: scale not given: the % may be the effect or the level left; conditions: route intraperitoneal
Mus musculus = experiment: Decrease in colon 26 tumor-induced hypercalcemia in BALB/c mouse at 100 mg/kg, ip twice daily; assay type: functional; set-up: scale not given: the % may be the effect or the level left; conditions: route intraperitoneal
[9] = Drug level in BALB/c mouse plasma after 6 hrs at 1 mg/kg, ip; assay type: ADME, organism-based; set-up: dose 1 mg/kg, route intraperitoneal; conditions: read-out: Drug uptake
[10] = Drug level in BALB/c mouse plasma after 6 hrs at 10 mg/kg, ip; assay type: ADME, organism-based; set-up: dose 10 mg/kg, route intraperitoneal; conditions: read-out: Drug uptake
[11] = Drug level in BALB/c mouse plasma after 6 hrs at 100 mg/kg, ip; assay type: ADME, organism-based; set-up: dose 100 mg/kg, route intraperitoneal; conditions: read-out: Drug uptake

Integrin alpha-V/beta-6, sequence (P06756 31-889 limits assumed): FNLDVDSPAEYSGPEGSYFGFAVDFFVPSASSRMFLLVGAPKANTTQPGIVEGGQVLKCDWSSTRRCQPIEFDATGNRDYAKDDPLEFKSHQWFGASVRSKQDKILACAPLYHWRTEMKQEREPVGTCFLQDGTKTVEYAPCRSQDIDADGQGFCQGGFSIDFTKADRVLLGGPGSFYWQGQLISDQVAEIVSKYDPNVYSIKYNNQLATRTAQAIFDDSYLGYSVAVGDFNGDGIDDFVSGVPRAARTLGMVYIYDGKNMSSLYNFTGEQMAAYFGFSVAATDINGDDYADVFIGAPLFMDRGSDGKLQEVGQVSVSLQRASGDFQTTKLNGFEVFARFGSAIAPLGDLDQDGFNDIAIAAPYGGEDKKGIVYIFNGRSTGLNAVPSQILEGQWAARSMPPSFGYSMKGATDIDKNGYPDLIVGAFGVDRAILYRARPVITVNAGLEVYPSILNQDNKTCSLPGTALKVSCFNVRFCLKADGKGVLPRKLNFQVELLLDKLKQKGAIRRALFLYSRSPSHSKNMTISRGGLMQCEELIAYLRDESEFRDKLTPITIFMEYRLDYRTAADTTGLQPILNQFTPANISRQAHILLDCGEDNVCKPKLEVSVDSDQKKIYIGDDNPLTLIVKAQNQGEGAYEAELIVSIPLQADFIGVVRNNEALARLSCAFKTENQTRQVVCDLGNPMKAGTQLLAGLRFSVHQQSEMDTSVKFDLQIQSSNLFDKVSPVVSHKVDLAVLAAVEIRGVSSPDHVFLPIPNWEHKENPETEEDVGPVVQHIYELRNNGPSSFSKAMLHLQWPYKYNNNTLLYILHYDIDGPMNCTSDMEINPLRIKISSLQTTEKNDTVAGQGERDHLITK
Integrin alpha-V/beta-6, sequence (P06756 891-1048 limits assumed): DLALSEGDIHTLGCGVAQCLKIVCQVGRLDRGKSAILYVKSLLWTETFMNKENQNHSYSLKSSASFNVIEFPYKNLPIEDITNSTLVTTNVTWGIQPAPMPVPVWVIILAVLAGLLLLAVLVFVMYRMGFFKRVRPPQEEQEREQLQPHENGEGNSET
Integrin alpha-V/beta-6, sequence (P18564 22-788 limits assumed): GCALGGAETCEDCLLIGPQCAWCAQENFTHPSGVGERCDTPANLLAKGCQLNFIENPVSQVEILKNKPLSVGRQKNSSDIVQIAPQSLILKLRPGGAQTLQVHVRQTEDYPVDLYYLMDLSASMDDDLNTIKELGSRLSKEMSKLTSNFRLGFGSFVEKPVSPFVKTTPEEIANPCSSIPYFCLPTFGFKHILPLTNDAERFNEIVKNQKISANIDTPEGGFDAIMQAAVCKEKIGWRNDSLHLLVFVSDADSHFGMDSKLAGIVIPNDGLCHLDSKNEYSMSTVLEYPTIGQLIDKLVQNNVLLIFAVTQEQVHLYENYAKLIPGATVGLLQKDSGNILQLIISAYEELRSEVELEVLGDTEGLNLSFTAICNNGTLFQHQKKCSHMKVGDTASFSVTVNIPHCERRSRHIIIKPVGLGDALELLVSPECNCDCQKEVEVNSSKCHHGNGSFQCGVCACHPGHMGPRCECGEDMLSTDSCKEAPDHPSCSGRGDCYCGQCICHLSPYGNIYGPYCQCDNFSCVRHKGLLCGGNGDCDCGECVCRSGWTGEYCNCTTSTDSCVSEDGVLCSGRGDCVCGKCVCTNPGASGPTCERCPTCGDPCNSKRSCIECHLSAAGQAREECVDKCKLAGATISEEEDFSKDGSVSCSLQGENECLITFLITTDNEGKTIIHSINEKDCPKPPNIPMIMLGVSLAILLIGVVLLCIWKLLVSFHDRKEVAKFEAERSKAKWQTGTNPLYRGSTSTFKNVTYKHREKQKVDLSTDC
Integrin alpha-V/beta-3, sequence (P05106 27-788 limits assumed): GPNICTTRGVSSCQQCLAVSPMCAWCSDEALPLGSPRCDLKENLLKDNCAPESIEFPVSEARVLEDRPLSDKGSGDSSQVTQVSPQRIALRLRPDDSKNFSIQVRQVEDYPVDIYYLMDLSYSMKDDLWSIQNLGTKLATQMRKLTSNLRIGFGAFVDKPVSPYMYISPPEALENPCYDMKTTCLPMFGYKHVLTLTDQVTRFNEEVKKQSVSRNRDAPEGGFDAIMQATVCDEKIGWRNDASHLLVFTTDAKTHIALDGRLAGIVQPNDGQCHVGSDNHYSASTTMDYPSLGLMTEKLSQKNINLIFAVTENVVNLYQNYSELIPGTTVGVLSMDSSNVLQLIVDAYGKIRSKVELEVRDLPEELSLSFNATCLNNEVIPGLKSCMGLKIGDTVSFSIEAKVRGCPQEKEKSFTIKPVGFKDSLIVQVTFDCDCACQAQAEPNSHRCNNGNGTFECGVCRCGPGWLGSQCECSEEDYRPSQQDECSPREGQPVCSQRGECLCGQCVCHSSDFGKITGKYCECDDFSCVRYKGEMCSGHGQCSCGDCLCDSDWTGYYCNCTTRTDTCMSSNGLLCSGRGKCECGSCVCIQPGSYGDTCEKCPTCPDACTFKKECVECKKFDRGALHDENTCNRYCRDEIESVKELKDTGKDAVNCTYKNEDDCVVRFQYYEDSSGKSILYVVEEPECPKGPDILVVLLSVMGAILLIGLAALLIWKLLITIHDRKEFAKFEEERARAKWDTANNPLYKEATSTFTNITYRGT
Integrin alpha-V/beta-3, sequence (P06756 31-889 limits assumed): as the sequence (P06756 31-889 limits assumed) above
Integrin alpha-V/beta-3, sequence (P06756 891-1048 limits assumed): as the sequence (P06756 891-1048 limits assumed) above

IC50 (Integrin alpha-V/beta-3): 1 nM
IC50 (Integrin alpha-V/beta-6): 366 nM
bioavailability [1]: 5.9%
half-life [2]: 2 h
concentration at 6 h [9]: 3300 ng/mL
concentration at 6 h [10]: 19400 ng/mL
concentration at 6 h [11]: 84400 ng/mL
SMILES: O=C(O)C[C@@H](NC(=O)CNC(=O)c1cc(O)cc(NC2=NCC(F)CN2)c1)c1cc(Cl)cc(Br)c1O (some centres undefined)
Activity (M21 [3]): Dose-dependent effect
Activity (M21 [4]): 62%
Activity (M21 [5]): 53%
Activity (Colon 26 [6]): Active
Activity (Colon 26 [7]): 60%
Activity (Colon 26 [8]): 55%
Activity (Mus musculus): 64%
